These results are taken from patent publication US20240197800A1, “Aristotelia chilensis EXTRACTS FOR TREATING FUNGAL INFECTIONS” (Phytonet Doo Beograd-rakovica, priority 2021, published 2024).

For test [1], the system named is Candida albicans SC5314. Nature of the test: zebrafish embryo hindbrain infection model, inhibition of candida filamentation in vivo. Further details: species or system Candida albicans (host: zebrafish embryo). The procedure:
The model of the brain infection (hindbrain) of the zebrafish embryo with Candida albicans, described in the literature, is an animal model of the infection system which due to the optical transparency of the embryo body provides the ability to examine and monitor the effect of applied therapeutics on replication, filamentation and fungi dissemination through the body of the zebrafish embryo as a host. The embryos at the developmental stage of 32-34 hpf were injected into the brain through an optic vesicle with 50-75 Candida albicans SC5314 cells, previously labeled with green fluorescent dye. Candida inoculum was prepared in 5% polyvinylpyrrolidone (PVP) solution. Two hours after the microinjection of candida, the infected embryos were treated with Maqui berry extract at a concentration of 0.0625 mg/mL, 0.125 mg/mL and 0.25 mg/mL, as well as nystatin at a concentration of 1 μg/mL (½MIK) and 0.5 μg/mL (¼MIK). Beside individual treatments, the infected embryos were exposed to a combined treatment (nystatin and extract together), in combinations of all mentioned doses. The embryos injected with only 5% PVP represented the control group. After the applied treatments, the zebrafish embryos were reared for the next 4 days at a temperature of 31° C. and monitored daily for survival as well as filamentation and dissemination of candida using fluorescence microscopy.

The subject of test [2] is candida, three clinical isolates. Kind of test: inhibition of candida filamentation in vitro, checkerboard assay with nystatin in RPMI medium. Type of test: cell-based, Candida albicans. The procedure:
The inhibitory effect of Maqui berry extract and nystatin, one of the most commonly applied topical antifungal drugs, on candida filamentation was investigated in vitro in three clinical isolates in RPMI medium in a checkerboard assay. The extract was tested in a concentration range of 0.125; 0.25 and 0.5 mg/mL (31.25; 62.5 and 125 μg/mL delphinidin, respectively 43.75; 87.5 and 175 μg/mL total anthocyanins), and nystatin in the concentration range 2 μg/mL (MIK), 1 μg/mL (½MIK) and 0.5 μg/mL (¼MIK).

The mark [3] stands for this setting: nystatin alone, MIK dose (2 μg/mL).

For `C[C@@H]1[C@H](O)[C@@H](C)/C=C/C=C/CC/C=C/C=C/C=C/C=C/C(O[C@H]2O[C@H](C)[C@@H](O)[C@H](N)[C@@H]2O)CC2O[C@](O)(CC(O)C(O)CCC(O)CC(O)CC(O)CC(=O)O[C@H]1C)CC(O)C2C(=O)O` (stereo partly drawn) [nystatin], the filamentation in vivo result in test [1] (both nystatin concentrations (0.5 and 1 μg/mL)) was “filamentation was present”. The “infection (candidiasis) compared to untreated embryos” value in test [1] (nystatin 0.5 μg/mL (¼MIK) and 1 μg/mL (½MIK)) was “significantly reduced”. Also, the MIK in test [2] (clinical isolates, RPMI medium) is 2 µg/mL. Also, in test [2] (setting [3]), the filamentation result is reported as “no filamentation” and the growth of isolates entry is on record as “reduced growth”. In addition, in test [2] (nystatin alone, ½MIK (1 μg/mL) and ¼MIK (0.5 μg/mL) doses), the growth and filamentation result was “grew and filamented”.
